From US11629139B2 (priority 2017, dated 2023)
Converted amounts (≈) assume the structure as drawn. Read-outs that look alike come from different tables or passages of the source.

Columns and labels:
in vivo = details: mouse, po
in vitro [1] = details: mouse, plasma
EBOV G-A82 = experiment: microbe, parasite or virus in culture; type: cell-based, Ebola virus; details: Zaire ebolavirus, HeLa, read-out: EBOV G-A82 (Hela) EC50
Ebola virus (Mayinga) = experiment: microbe, parasite or virus in culture; type: cell-based; details: Zaire ebolavirus, HeLa, read-out: EBOV Maiynga) (Hela) EC50
EBOV Makona = experiment: microbe, parasite or virus in culture; type: cell-based, Ebola virus; details: Zaire ebolavirus, HeLa, read-out: EBOV Makona (Hela) EC50
EBOV Kikwit = experiment: microbe, parasite or virus in culture; type: cell-based, Ebola virus; details: Zaire ebolavirus, HeLa, read-out: EBOV Kikwit(Hela) EC50
[2] = mouse, in vivo
[3] = tested on: vesicular stomatitis virus particles (VSV) pseudotyped with EboV Zaire GP; experiment: microbe, parasite or virus in culture; type: cell-based
physchem = details: pH 7.4, aqueous buffer, kinetic from dmso stock
in vitro [4] = details: mouse, microsomes
[5] = pH 7.4
[6] = not given; remark: listed apart in the source
[7] = tested on: vesicular stomatitis virus particles (VSV) pseudotyped with EboV Zaire GP; details: cited from earlier work
[8] = plasma
[9] = human, microsomes
VSV G = details: cited from earlier work
[10] = tested on: Lassa fever virus (LFV) GP; details: cited from earlier work

Molecule CS(=O)(=O)c1ccc(COc2ccc(Cl)cc2CN2CCN(C(=O)CNC(=O)C3CC34CCC(F)(F)CC4)CC2)cc1 (stereo not shown) [Compound 1476] has an AUC (in vivo) of 314 µM·h, a Cmax (in vivo) of 23 µM and a half-life (in vivo) of 6.1 h. The fraction unbound (in vitro [1]; m-plasma protein binding) was 0.013, the EC50 (EBOV G-A82) was under 80 nM and the EC50 (Ebola virus (Mayinga)) was 420 nM. For the same molecule, the EC50 (EBOV Makona) was 140 nM, the EC50 (EBOV Kikwit) was 210 nM and the “C@12 hr” value [2] was 14 µM. The “m-μsome T1/2 (with 3 μM of Ritonavir)” value (mouse, microsomes, pH 7.4) was 2.83 h.
[2H]C([2H])(c1cc(Cl)ccc1N)N1CCN(C(=O)CNC(=O)CC2CCC(F)(F)CC2)CC1 [Compound 1412, N-(2-(4-((2-amino-5-chlorophenyl)methyl-d2)piperazin-1-yl)-2-oxoethyl)-2-(4,4-difluorocyclohexyl)acetamide] showed a Cmax (in vivo; 25 mg/kg) of 12 µM, an IC50 [3] of 68 nM and an IC50 ([3]; Vesicular stomatitis virus) of 130 nM. For the same molecule, the solubility kinetic (physchem) was over 100 µM, the “C@12 hr” value [2] was 1.7 µM and the “Cl_obs” value [2] was 12.3 mL/min/kg. The “Decrease of the clearance by co-administration of ritonavir” value ([2]; po) was about 4 fold, the “Increase of the AUC by co-administration of ritonavir” value ([2]; po) was about 4 fold and the “C@12 hr” value ([2]; po, 25 mg/kg) was 0.2 µM. For the same molecule, the “Cl_obs” value ([2]; po, 25 mg/kg) was 49.0 mL/min/kg, the Cmax ([2]; po, 25 mg/kg) was 7.2 µM and the “T1/2” value ([2]; po, 25 mg/kg) was 2.3 h. The “Effect of CYP3A4 inhibition on T1/2 (FIG. 9)” value (mouse, microsomes) was “improves”, the “T1/2 (min)” value (mouse, microsomes, pH 7.4) was 1.4/144 min and the “Increase of stability in mouse liver microsomes by ritonavir” value (pH 7.4) was 10- to 30 fold. The half-life (in vitro [4]; pH 7.4, Microsome T1/2) was 0.145 to 0.217 h, the half-life (in vitro [4]; pH 7.4, T1/2(min)) was 0.217 h and the half-life (in vitro [4]; pH 7.4, T1/2 + ritonavir (min)) was 2.4 h. The Kinetic solubility [5] was 93 µM and the “Sol” value [5] was over 100 mM.
Work on O=C(CC12CC3CC(CC(C3)C1)C2)NCC(=O)N1CCN(Cc2ccccc2OCc2ccc(-c3ncco3)cc2)CC1 [Compound 1803, 2-((3r,5r,7r)-Adamantan-1-yl)-N-(2-(4-(2-((4-(oxazol-2-yl)benzyl)oxy)benzyl)piperazin-1-yl)-2-oxoethyl)acetamide] yielded an IC50 ([3]; Vesicular stomatitis virus) of 270 nM, a solubility kinetic (physchem) of 5 µM (≈ 2.91 µg/mL) and a fraction unbound (in vitro [1]; Mouse PPB (% bound)) of 0.003. For the same molecule, the “Mouse plasma stability (% at 4 hours)” value [6] was 37% and the half-life (in vitro [4]; pH 7.4, MLM T½ (min)) was 0.0167 h.
In the case of COC(=O)c1ccc(COc2ccccc2CN2CCN(C(=O)CNC(=O)CC34CC5CC(CC(C5)C3)C4)CC2)cc1 [Compound 3.47, reference compound], the “Potency against EboV GP-dependent infection” value [7] is given as “increased potency” and the “Concentration required to reduce cell viability by 50%” value (cell viability) is given as “exceeded 10 μM”.
With [2H]C([2H])(c1cc(Cl)ccc1N)N1CCN(C(=O)CNC(=O)C2CC23CCC(F)(F)CC3)CC1 (single isomer, unassigned; (-)) [(−)-1413] the “C@12 hr” value [2] was 2.0 µM, the “Cl_obs” value [2] was 15.5 mL/min/kg and the “AUClast” value ([2]; po, 50 mg/kg) was 120.9 µM·h. For the same molecule, the “T1/2” value ([2]; po, 50 mg/kg) was 3.2 h, the “Tmax” value ([2]; po, 50 mg/kg) was 1.7 h and the “Increase of stability in mouse liver microsomes by ritonavir” value was 10- to 30 fold. For the same molecule, the “MLM T½” value (mouse, microsomes) was 3 min, the “MLM, T½ (min) (ritonavir 3 μM)” value (mouse, microsomes) was 91 min and the “Mouse PPB (% bound)” value [8] was 87.9%. The “HLM T½” value [9] was 0.267 h and the Kinetic solubility [5] was 78 µM.
Work on CS(=O)(=O)c1ccc(CNc2ccc(Cl)cc2CN2CCN(C(=O)CNC(=O)CC3CCC(F)(F)CC3)CC2)cc1 [Compound 1477] yielded a fraction unbound (in vitro [1]; m-plasma protein binding) of 0.001, an EC50 (Ebola virus (Mayinga)) of 33 nM and an EC50 (EBOV Makona) of 52 nM. The EC50 (EBOV Kikwit) was 12 nM, the “m-μsome T1/2 (with 3 μM of Ritonavir)” value (mouse, microsomes, pH 7.4) was 1.5 h and the “Concentration required to reduce cell viability by 50%” value (cell viability) was “exceeded 10 μM”.
In the case of [2H]C([2H])(c1cc(Cl)ccc1NCc1ccc(S(C)(=O)=O)cc1)N1CCN(C(=O)CNC(=O)C2CC23CCC(F)(F)CC3)CC1 (single isomer, unassigned; (-)) [(−)-1503], the “C@12 hr” value [2] is reported as 5.7 µM, the “Cl_obs” value [2] is reported as 12.5 mL/min/kg and the “Plasma concentration after 12 hours relative to in vitro IC50 against rVSV EBOV infection in 50% human serum” value [2] is reported as 50 fold. The “AUClast” value ([2]; po, 50 mg/kg) was 107.5 µM·h, the “T1/2” value ([2]; po, 50 mg/kg) was 1.7 h and the “Tmax” value ([2]; po, 50 mg/kg) was 7.3 h. The “MLM T½” value (mouse, microsomes) was 2 min, the “MLM, T½ (min) (ritonavir 3 μM)” value (mouse, microsomes) was 87 min and the “Mouse PPB (% bound)” value [8] was 99.8%. For the same molecule, the “HLM T½” value [9] was 0.017 h and the Kinetic solubility [5] was 4 µM.
For O=C(CC12CC3CC(CC(C3)C1)C2)NCC(=O)N1CCN(Cc2ccccc2)CC1 [Compound 3.0], the “Infection of Vero cells by VSV pseudotyped with EboV Zaire GP” value [7] is given as “inhibits infection”, the “Infection of Vero cells by VSV particles with VSV G” value (VSV G) is given as “not” and the “Infection of Vero cells by VSV pseudotyped with Lassa fever virus (LFV) GP” value [10] is given as “not”.
With CS(=O)(=O)c1ccc(COc2ccc(Cl)cc2CN2CCN(C(=O)CNC(=O)CC3CCC(F)(F)CC3)CC2)cc1 [Compound 1458] the IC50 ([3]; Vesicular stomatitis virus) was 9 nM, the “Mouse plasma stability (% at 4 hours)” value [6] was 30% and the “MLM, T½ (min) (ritonavir 3 μM)” value (mouse, microsomes, pH 7.4) was over 120 min.
CS(=O)(=O)c1ccc(CNc2ccc(Cl)cc2CN2CCN(C(=O)CNC(=O)C3CC34CCC(F)(F)CC4)CC2)cc1 (stereo not shown) [Compound 1478] gave a fraction unbound (in vitro [1]; m-plasma protein binding) of 0.001, an EC50 (Ebola virus (Mayinga)) of 35 nM and an EC50 (EBOV Makona) of 17 nM. The EC50 (EBOV Kikwit) was 9 nM and the “m-μsome T1/2 (with 3 μM of Ritonavir)” value (mouse, microsomes, pH 7.4) was 2.13 h.
